# Source: US20030100769A1, “Cyclic amidine compounds” (priority 2000, published 2003)
# Where two headings read alike, the source gives them in different places.
# Columns and labels:
# [1] = molecular target: α1β1γδ subtype of nicotinic acetylcholine receptors (Rattus norvegicus, UniProt P18916+P25108+P25109+P25110); experiment: biochemical; assay type: binding; conditions: for remaining activity at 100 µM: read-out: control % of [3H]-α-Bgt binding at 100 μM of test compound; for remaining activity at 1000 µM: read-out: control % of [3H]-α-Bgt binding at 1,000 μM of test compound
# Excerpt: (§1) The methods for evaluating the binding capabilities of the compounds at nicotinic acetylcholine receptors are different by subtypes of receptors. The binding capabilities of the compounds at α4β2 nicotinic acetylcholine receptors are examined using rat brain membrane obtained from whole homogenized brain, and determining the inhibiting rate of the compounds against [^3H]-cytisine binding to said brain membrane. Furthermore, the binding capabilities of the compounds at α1β1γδ nicotinic acetylcholine receptors are examined using homogenized rat muscle, and determining the inhibiting rate of the compounds against [^3H]-α-bungarotoxin binding to said muscle homogenate.
# Binding Assays at α1β1γδ Subtype of Nicotinic Acetylcholine Receptors
# The affinity of the compounds of the present invention to α1β1γδ subtype of nicotinic acetylcholine receptors was measured by the following method, which was modified method described by Garcha H. S., Thomas P., Spivak C.
# (1) Preparation of Rat Skeletal Muscles Containing α1β1γδ Subtype of Nicotinic Acetylcholine Receptors
# The substantially same animals described in the Biological Experiment 1 were used.
# The isolation of α1β1γδ subtype of nicotinic acetylcholine receptors was performed as follow. That is, rat posterior skeletal muscles were isolated just after sacrificed by decapitation, washed with ice-cooled saline solution and then frozen at −80° C. with liquid nitrogen and stored till using. After thawing the frozen muscles, tissue was homogenized ([…]) with buffer solution [2.5 mM of sodium phosphate buffer (pH:7.2), 90 mM of NaCl, 2 mM of KCl, 1 mM of EDTA, 2 mM of benzamidine, 0.1 mM of benzethonium chloride, 0.1 mM of PMSF, 0.01% of sodium azide] in Waring blender (Waring blender 34BL97; WARING PRODUCTS DIVISION DYNAMICS CORPORATION OF AMERICA) for 60 seconds. The homogenate were centrifuged under 20,000×G for 60 minutes at 4° C. The supernatant was separated and the resulting pellet was added to the same buffer (1.5 ml/g wet weight), and homogenized under the same conditions. Triton X100 (2% w/v) was added and the mixture was stirred for 3 hours at 4° C. The centrifugation at 100,000×G for 60 minutes at 4° C. yielded the rat muscle extract as supernatant. This was stored at 4° C. for up to 4 weeks, and used for binding assays at receptors.
# (2) Experiments of α1β1γδ Subtype of Nicotinic Acetylcholine Receptors Binding
# Receptors binding experiments were performed as follow. That is, the extract of rat muscle containing 600-900 μg of protein was added to test tubes containing test compounds and incubated for 15 minutes at 37° C. Then, to this mixture was added 1 nM of [^3H]-α-bungarotoxin (α-Bgt) and further incubated for 2 hours. The samples were isolated by vacuum filtration onto Whatman GF/B filters, which were prerinsed with 0.5% polyethylenimine just prior to sample filtration, using Brandel multi manifold cell harvester. The filters were rapidly rinsed with washing solution (10 mM of KH2PO4, 150 mM of NaCl, pH 7.2, room temperature) (5×1 ml). The filters were counted in 3 ml of clearsol I (Nacalai Tesque Inc.). The determination of nonspecific binding was incubated in the presence of 1 μM α-Bgt. […] In the receptor binding experiments, said buffer solution was added for adjusting the final concentration of BSA to be 0.05%.
# The analyses of the experimental results were conducted by the same way as described in the Biological Experiment 1.
# [2] = molecular target: T1, α4β2 subtype of nicotinic acetylcholine receptors (Rattus norvegicus, UniProt P09483+P12390); experiment: Binding assay at α4β2 subtype of nicotinic acetylcholine receptors ([3H]-cytisine, rat brain membrane)
# T1 construct: examined using rat brain membrane obtained from whole homogenized brain; from tissue; host or cells: rat whole brain membranes (Fischer-344 male rats)
# Excerpt: as §1
# Binding Assays at α4β2 Subtype of Nicotinic Acetylcholine Receptors
# (1) Preparation of Rat Brain Membrane Containing α4β2 Subtype of Nicotinic Acetylcholine Receptors
# Rats were housed in the breeding cage controlled of the room temperature at 23±1° C., and the humidity of 55±5% for 1 to 4 weeks. Rats (3 to 4 rats per a cage) were housed with lights on for 12 hours daily (from 7:00 to 19:00), and allowed free access to food and water.
# Preparation of rat brain membrane containing α4β2 subtype of nicotinic acetylcholine receptors was performed as follow. That is, rat brains were isolated just after sacrificed by decapitation, washed with ice-cooled saline solution and then frozen at −80° C. with liquid nitrogen and stored till using. After thawing the frozen brain, the brain was homogenized in 10 volumes of ice-cooled buffer solution (50 mM of Tris-HCl, 120 mM of NaCl, 5 mM of KCl, 1 mM of MgCl2, 2 mM of CaCl2; pH 7.4; 4° C.) using homogenizer (HG30, Hitachi Kohki Ltd.) for 30 seconds, and the homogenate were centrifuged under 1,000×G for 10 minutes at 4° C. The resulting supernatant was separated and the pellet was homogenized again with half volume of aforementioned prior buffer solution and centrifuged under the same conditions. Combined supernatant was further centrifuged under 40,000×G for 20 minutes at 4° C. The pellet was suspended in buffer solution and used for binding assays at receptors.
# (2) Experiments of α4β2 Subtype of Nicotinic Acetylcholine Receptors Binding
# Suspensions of membrane pellets containing 400-600 μg of protein were added to test tubes containing test compounds and [^3H]-cytisine (2 nM) in a final volume of 200 μl and incubated for 75 minutes in ice-cooled bath. The samples were isolated by vacuum filtration onto Whatman GF/B filters, which were prerinsed with 0.5% polyethylenimine just prior to sample filtration, using Brandel multi manifold cell harvester. The filters were rapidly washed with buffer solution (3×1 ml). The filters were counted in 3 ml of clearsol I (Nacalai Tesque Inc.).
# The analyses of the experimental results were conducted by using the Accufit Competition Program (Beckman Ltd.).
# [3] = rat brain membrane, [3H]-cytisine 2 nM, read-out: Affinities for receptors Ki α4β2
# T1 sequence (P09483 31-630): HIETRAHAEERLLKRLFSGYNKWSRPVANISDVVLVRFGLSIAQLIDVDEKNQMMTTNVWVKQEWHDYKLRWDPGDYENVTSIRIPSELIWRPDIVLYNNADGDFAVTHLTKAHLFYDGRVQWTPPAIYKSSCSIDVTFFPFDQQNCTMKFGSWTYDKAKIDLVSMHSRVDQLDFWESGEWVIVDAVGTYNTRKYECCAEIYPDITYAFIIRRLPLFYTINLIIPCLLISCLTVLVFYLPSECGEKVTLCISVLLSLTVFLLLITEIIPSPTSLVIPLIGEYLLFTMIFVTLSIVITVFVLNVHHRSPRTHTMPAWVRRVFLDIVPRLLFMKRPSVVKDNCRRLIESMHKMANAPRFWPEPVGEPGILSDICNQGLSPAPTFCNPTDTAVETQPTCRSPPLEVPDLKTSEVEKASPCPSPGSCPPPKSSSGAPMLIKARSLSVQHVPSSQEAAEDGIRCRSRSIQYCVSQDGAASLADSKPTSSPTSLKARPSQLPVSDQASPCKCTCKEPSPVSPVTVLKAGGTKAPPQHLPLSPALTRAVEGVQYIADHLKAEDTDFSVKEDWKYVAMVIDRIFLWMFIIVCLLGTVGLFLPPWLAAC
# T1 sequence (P12390 25-500): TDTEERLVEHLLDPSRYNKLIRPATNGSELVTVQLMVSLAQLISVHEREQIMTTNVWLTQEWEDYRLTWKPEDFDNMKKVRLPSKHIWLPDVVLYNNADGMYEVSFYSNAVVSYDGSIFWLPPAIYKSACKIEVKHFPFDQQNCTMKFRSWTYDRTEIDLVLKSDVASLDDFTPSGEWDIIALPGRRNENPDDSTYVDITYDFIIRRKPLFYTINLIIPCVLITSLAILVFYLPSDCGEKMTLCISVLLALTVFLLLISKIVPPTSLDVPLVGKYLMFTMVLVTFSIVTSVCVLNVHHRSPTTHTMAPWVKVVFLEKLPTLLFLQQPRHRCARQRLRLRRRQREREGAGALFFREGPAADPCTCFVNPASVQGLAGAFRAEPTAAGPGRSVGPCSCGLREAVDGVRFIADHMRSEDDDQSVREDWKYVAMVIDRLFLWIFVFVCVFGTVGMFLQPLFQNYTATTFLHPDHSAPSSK
# Sequence of α1β1γδ subtype of nicotinic acetylcholine receptors (P25109 24-501): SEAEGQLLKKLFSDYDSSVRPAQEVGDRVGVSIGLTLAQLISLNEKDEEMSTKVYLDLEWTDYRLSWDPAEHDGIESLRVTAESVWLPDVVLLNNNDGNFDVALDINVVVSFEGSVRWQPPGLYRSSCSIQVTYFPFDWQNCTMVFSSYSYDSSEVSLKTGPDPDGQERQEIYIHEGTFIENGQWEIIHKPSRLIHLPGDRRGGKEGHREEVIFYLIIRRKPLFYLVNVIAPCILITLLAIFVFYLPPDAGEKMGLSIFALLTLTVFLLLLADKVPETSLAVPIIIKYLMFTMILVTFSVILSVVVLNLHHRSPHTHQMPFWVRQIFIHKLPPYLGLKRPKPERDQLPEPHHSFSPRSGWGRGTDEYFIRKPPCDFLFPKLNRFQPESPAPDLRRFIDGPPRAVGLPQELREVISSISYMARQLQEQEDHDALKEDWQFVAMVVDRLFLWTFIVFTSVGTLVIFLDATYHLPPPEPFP
# Sequence of α1β1γδ subtype of nicotinic acetylcholine receptors (P25110 22-517): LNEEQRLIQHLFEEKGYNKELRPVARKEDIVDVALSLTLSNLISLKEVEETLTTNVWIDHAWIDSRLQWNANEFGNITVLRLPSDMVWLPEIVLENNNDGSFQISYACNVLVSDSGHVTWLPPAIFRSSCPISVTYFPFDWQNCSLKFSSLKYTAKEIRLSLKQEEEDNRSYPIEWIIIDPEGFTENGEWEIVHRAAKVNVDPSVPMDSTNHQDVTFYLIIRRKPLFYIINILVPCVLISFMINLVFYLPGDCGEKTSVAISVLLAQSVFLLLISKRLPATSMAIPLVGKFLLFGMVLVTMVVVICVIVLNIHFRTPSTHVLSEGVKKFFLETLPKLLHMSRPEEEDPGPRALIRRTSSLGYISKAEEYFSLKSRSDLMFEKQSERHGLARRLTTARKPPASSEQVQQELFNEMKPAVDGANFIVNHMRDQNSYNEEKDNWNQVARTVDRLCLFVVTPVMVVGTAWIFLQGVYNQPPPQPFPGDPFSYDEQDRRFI
# Sequence of α1β1γδ subtype of nicotinic acetylcholine receptors (P25108 21-457): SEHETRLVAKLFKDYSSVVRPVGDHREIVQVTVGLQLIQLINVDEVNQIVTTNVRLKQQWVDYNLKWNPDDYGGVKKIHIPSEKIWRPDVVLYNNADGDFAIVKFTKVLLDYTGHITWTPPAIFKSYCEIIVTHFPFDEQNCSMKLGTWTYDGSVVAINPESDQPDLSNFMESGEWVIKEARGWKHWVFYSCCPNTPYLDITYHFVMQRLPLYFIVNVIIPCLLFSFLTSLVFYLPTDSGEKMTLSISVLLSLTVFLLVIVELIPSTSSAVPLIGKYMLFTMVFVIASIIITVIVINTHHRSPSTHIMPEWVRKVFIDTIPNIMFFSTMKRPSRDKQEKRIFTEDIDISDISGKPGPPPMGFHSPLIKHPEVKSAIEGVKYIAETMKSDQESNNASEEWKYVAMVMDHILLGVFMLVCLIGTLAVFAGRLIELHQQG
Compound,remaining activity at 100 µM [1],remaining activity at 1000 µM [1],Ki [2],Ki [1],"Ki [2, 3]"
"CN1CCCN=C1c1ccc(Cl)nc1 [Compound 4, 2-(6-chloro-3-pyridyl)-1-methyl-1,4,5,6-tetrahydropyrimidine]",46%,16%,0.067 µM,–,–
"Clc1ccc(CC2=NCCN2)cn1 [Compound 7, 2-(6-chloro-3-pyridyl)methyl-2-imidazoline]",80%,51%,0.086 µM,–,–
"Clc1ccc(CC2=NCCCN2)cn1 [Compound 8, 2-(6-chloro-3-pyridyl)methyl-1,4,5,6-tetrahydropyrimidine]",–,–,0.029 µM,395 µM,–
"CN1CCN=C1Cc1ccc(Cl)nc1 [Compound 9, 2-(6-chloro-3-pyridyl)methyl-1-methyl-2-imidazoline]",43%,16%,0.0077 µM,–,–
"CN1CCCN=C1Cc1ccc(Cl)nc1 [Compound 10, 2-(6-chloro-3-pyridyl)methyl-1-methyl-1,4,5,6-tetrahydropyrimidine]",40%,17%,0.001 µM,–,–
"CC1=NCCN1Cc1ccc(Cl)nc1 [Compound 11, 1-(6-chloro-3-pyridyl)methyl-2-methyl-2-imidazoline]",74%,53%,0.115 µM,–,–
"CC1(C)CN(Cc2ccc(Cl)nc2)C=N1 [Compound 12, 1-(6-chloro-3-pyridyl)methyl-4,4-dimethyl-2-imidazoline]",79%,42%,0.268 µM,–,–
"C1CN=C(CC2CCOC2)NC1 (stereo not drawn) [Compound 15, 2-(tetrahydrofuran-3-yl)methyl-1,4,5,6-tetrahydropyrimidine]",–,–,–,–,0.95 µM
"Brc1cncc(CC2=NCCCN2)c1 [Compound 16, 2-(5-bromo-3-pyridyl)methyl-1,4,5,6-tetrahydropyrimidine]",63%,30%,0.392 µM,–,–
"c1cncc(CC2=NCCCN2)c1 [Compound 18, 2-(3-pyridyl)methyl-1,4,5,6-tetrahydropyrimidine]",62%,18%,0.086 µM,–,–
"c1cncc(CC2=NCCN2)c1 [Compound 19, 2-(3-pyridyl)methyl-2-imidazoline]",69%,29%,–,–,–
"c1ccc2ncc(C3=NCCCN3)cc2c1 [Compound 25, 2-(3-quinolyl)-1,4,5,6-tetrahydropyrimidine]",41%,7%,–,–,0.338 µM
"CC1=NCC(c2cccnc2)N1 (stereo not drawn) [Compound 32, 2-methyl-5-(3-pyridyl)-2-imidazoline]",69%,35%,–,–,0.58 µM
"C1=NCC(c2cccnc2)N1 (stereo not drawn) [Compound 33, 5-(3-pyridyl)-2-imidazoline]",–,–,0.365 µM,–,–
"Clc1cc(CC2=NCCCN2)cnc1Cl [Compound 36, 2-(5,6-dichloro-3-pyridyl)methyl-1,4,5,6-tetrahydropyrimidine]",81%,34%,0.124 µM,–,–
"Cc1ccc(CC2=NCCCN2)cn1 [Compound 43, 2-(6-methyl-3-pyridyl)methyl-1,4,5,6-tetrahydropyrimidine]",71%,28%,0.167 µM,–,–
"Fc1ccc(CC2=NCCCN2)cn1 [Compound 48, 2-(6-fluoro-3-pyridyl)methyl-1,4,5,6-tetrahydropyrimidine]",–,–,0.082 µM,257 µM,–
"Clc1cc(CC2=NCCN2)cnc1Cl [Compound 49, 2-(5,6-dichloro-3-pyridyl)methyl-2-imidazoline]",–,–,–,773 µM,0.211 µM
"Clc1cc(CN2C=NCCC2)cnc1Cl [Compound 52, 1-(5,6-dichloro-3-pyridyl)methyl-1,4,5,6-tetrahydropyrimidine]",–,–,0.0012 µM,23 µM,–
"CN1CCN=C1Cc1cnc(Cl)c(Cl)c1 [Compound 53, 2-(5,6-dichloro-3-pyridyl)methyl-1-methyl-2-imidazoline]",–,–,0.01 µM,83 µM,–
"CC1CCNC(Cc2ccc(Cl)nc2)=N1 (stereo not drawn) [Compound 54, 2-(6-chloro-3-pyridyl)methyl-4-methyl-1,4,5,6-tetrahydropyrimidine]",–,–,0.108 µM,1740 µM,–
"Clc1ncc(CC2=NCCCN2)s1 [Compound 64, 2-(2-chloro-5-thiazolyl)methyl-1,4,5,6-tetrahydropyrimidine]",–,–,0.0081 µM,23 µM,–
"Clc1ncc(CC2=NCCN2)s1 [Compound 65, 2-(2-chloro-5-thiazolyl)methyl-2-imidazoline]",–,–,0.053 µM,524 µM,–
"c1ncc(CC2=NCCCN2)cn1 [Compound 66, 2-(5-pyrimidyl)methyl-1,4,5,6-tetrahydropyrimidine]",–,–,0.09 µM,841 µM,–
"Cc1cncc(CC2=NCCCN2)c1 [Compound 68, 2-(5-methyl-3-pyridyl)methyl-1,4,5,6-tetrahydropyrimidine]",–,–,0.203 µM,231 µM,–
